Assay results from patent publication US20260364088A1, “TASL MIMICKING MOLECULES AND APPLICATIONS THEREOF” (CEMM - FORSCHUNGSZENTRUM FÜR MOLEKULARE MEDIZIN GMBH, priority 2022, published 2026).
Where two headings read alike, the source gives them in different places.

Key:
Format in all cases: cell-based
[1] = target: T1, SLC15A4 (Homo sapiens, UniProt Q8N697); assay: Competition assay with V5-tagged N-terminal TASL fragments (V5 immunofluorescence); conditions: TASL-V5 fragments of first 94 and 193 amino acids; 10 mM dTASL1, 24 h
T1 construct: transient TASL-V5 N-terminal fragments 1-94 and 1-193 (C-terminal V5) as partner
T1 sequence (Q8N697 whole entry, the tested form may be a part): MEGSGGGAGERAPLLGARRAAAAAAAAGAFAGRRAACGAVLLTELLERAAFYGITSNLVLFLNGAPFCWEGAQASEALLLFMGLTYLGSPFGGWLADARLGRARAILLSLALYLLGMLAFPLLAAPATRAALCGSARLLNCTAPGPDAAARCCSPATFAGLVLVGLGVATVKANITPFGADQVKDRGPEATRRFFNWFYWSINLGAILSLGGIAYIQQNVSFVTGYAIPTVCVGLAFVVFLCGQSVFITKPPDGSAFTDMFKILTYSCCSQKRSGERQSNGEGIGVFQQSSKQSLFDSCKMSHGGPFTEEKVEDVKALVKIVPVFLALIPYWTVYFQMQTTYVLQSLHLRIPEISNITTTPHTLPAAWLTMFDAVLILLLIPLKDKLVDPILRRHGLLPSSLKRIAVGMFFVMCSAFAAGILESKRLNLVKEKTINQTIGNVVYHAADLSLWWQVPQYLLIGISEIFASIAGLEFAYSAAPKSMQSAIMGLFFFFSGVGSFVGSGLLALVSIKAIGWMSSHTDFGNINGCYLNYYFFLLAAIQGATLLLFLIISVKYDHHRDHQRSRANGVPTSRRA
Description: For staining of fixed cells, 12 k cells/well were seeded in tissue culture-treated PhenoPlate 96-well plates (PerkinElmer) and incubated over-night. Cells were transfected with TASL-V5 fragments the next day and subsequently TASL-V5 expression was induced by addition of 1 μg/ml doxycycline and […] dTASL1 or an equivalent volume of DMSO respectively. Compound and doxycycline were added at the same time, to allow dTASL1 to occupy SLC15A4 binding sites in advance of TASL binding. Cells were fixed after 24 h of incubation for 10 min with 4% formaldehyde in PBS and permeabilized and blocked with 0.2% Triton X-100 (Sigma) and 5% FBS in PBS for 1 h. Cells were stained overnight at 4 °C with a mouse anti V5 primary antibody (Invitrogen) in blocking solution. Cells were washed 3 time in PBS and stained for 1.5 h with fluorescently labelled goat anti mouse Alexa-568 (Invitrogen) secondary antibody. […]
(§1) Encouraged by the fact that the chemical entity of the present invention was showing the desired behavior and specificity profile, it became important to better clarify the molecular basis of this uncommon mechanism of action, i.e interference with a highly specific protein interaction leading to degradation of a single complex component. The effect of dTASL1 on complex assembly was first monitored. […]

[2] = target: T2, THP1 dual cell (Homo sapiens, UniProt Q8N697); assay: THP1 DUAL/ISRE cell reporter assay (R848 stimulated)
T2 construct: R848 (TLR7/8)-stimulated ISRE reporter
T2 sequence (Q8N697 whole entry): as the sequence (Q8N697 whole entry, the tested form may be a part) above
Description: CAL-1, THP1 or human primary cells were incubated with dTASL1 and other identified compounds (or the corresponding volume of DMSO vehicle) for 24 h or 48 h at the indicated concentration and subsequently stimulated with R848 (5 μg/ml) for the indicated time. Supernatant or cells were recovered for ELISA, SDS-PAGE or microscopy-based analysis.
THP1 DUAL cells (1×10^5 cells per 96 well) were incubated with compounds for 24 h or 48 h, and subsequently stimulated for 20 h as indicated. Cell culture supernatant were collected, cleared of residual cells by centrifugation and analyzed for NF-κB and ISRE reporter activity according to the manufacturer's instructions. For experiments in 384-well format, compounds were pre-plated at defined concentrations and THP1 dual cells were added at 800 k/well concentration in […]. After incubation for 24 h or 48 h cells were stimulated with […] of a 25 μg/ml stock of R848 or 0.5 μg/ml Pam3CKS4 5× stocks as indicated for 20 h and detected by directly adding Quanti-Luc Plus (Invivogen) solution to the plates, according to the manufacturer's instructions and without adding stabilizer solution. Quanti-Blue detection was carried out according to the manifacturers instructions, with QB reagent and buffer (Invivogen) dissolved in 30 ml water, instead of the 100 ml used for standard detection.
Based on potency and kinetics, the compound C5 was selected for further characterization (FIG. 2E). C5 is an elongated molecule comprised of an aromatic 2-(4-ethoxyphenyl)-quinoline moiety followed by an amide bond and an aliphatic 2-methyl-1-propylpiperidine (FIG. 2F). To validate the scaffold and explore the chemical space at the aliphatic end of the compound, five analogues and an independently synthesized batch of C5 were obtained. […] Therefore the C5 compound was selected, which was named dTASL1 as its activity leads to TASL degradation, to assess effects on TLR7/8-induced signaling and responses.
The following compounds were assayed for their activity in the degradation assay (THP1 DUAL/ISRE cell reporter assay), as described herein: […]

[3] = system: TASL-GFP (Homo sapiens); assay: TASL-GFP levels in HEK293T cells co-expressing SLC15A4 (flow cytometry, microscopy); conditions: HEK293T co-expressing SLC15A4, 10 µM, 24 h
Sequence of TASL-GFP (Homo sapiens) (Q8N697 whole entry): as the sequence (Q8N697 whole entry, the tested form may be a part) above
Description: (§2) Cells transfected with TASL-V5 plasmid were stained for V5-tag and detected with deep red Alexa Fluor 647 secondary antibody to allow for selection in the presence of an mCherry reporter. Cells were measured either immediately after staining or in the case of live cells immediately after harvesting and washing with PBS. Data were acquired on a BD FACSCalibur (BD Biosciences) and analyzed with FlowJo software (version 10).
(§3) For live cell imaging cells were plated in PhenoPlate 96-well plates or Ibidi m-Slide 8 (Ibidi) wells at 16 k/well and incubated over-night. Then compounds were added, if indicated, and cells were imaged after 24 h of incubation. Cells were stained with LysoTracker Deep Red L12492 (ThermoFisher) and Hoechst 34580 (ThermoFisher). […] Images were analyzed with Fiji-ImageJ.
as §1

[4] = target: TASL-GFP (Homo sapiens, UniProt Q8N697); assay: as above; conditions: HEK293T co-expressing SLC15A4, 10 µM, 24 h
Sequence of TASL-GFP (Q8N697 whole entry): as the sequence (Q8N697 whole entry, the tested form may be a part) above
Description: as §2, §3, §1

- IC50 ([2]; 24 h treatment before R848 stimulation, read-out: IC50 24 h): 2.23 µM
- IC50 ([2]; 48 h treatment before R848 stimulation, read-out: IC50 48 h): 0.933 µM
- TASL-GFP levels [3]: reduced TASL-GFP levels
Structure (SMILES): CCOc1ccc(-c2cc(C(=O)NCCCN3CCCCC3C)c3ccccc3n2)cc1 (centres unmarked) [dTASL1, 2-(4-ethoxyphenyl)-N-(3-(2-methylpiperidin-1-yl)propyl) quinoline-4-carboxamide]
- SLC15A4-localized V5 signal [1]: reduce SLC15A4-localized V5 signal for both short TASL portions
- TASL-GFP levels and localization by microscopy [4]: a reduction of TASL-GFP levels accompanied by relocalisation
